According to paper PMC7696255, “In-Silico Identified New Natural Sortase A Inhibitors Disrupt S. aureus Biofilm Formation” (International Journal of Molecular Sciences, 2020):
“And” between values parts separate entries of the source, which are not always exact repeats. Equal entries are not always repeated. Structures can show the parent of a compound that is named as a salt. Where two headings read alike, the source gives them in different places.

What was measured:
[1] = system: S. aureus ATCC 25923; assay: S. aureus whole cell assay (MIC, microbroth dilution); assay type: cell-based, Staphylococcus aureus; details: Staphylococcus aureus, ATCC25923, 24 h
Experimental: (§1) Minimum inhibitory concentration (MIC) tests were performed according to procedures of the Clinical Laboratory Standards Institute (CLSI) with minor changes using the microbroth dilution technique in a 384-well setup. Inoculum of each S. aureus strain was prepared by suspending segregated colonies in sterile saline to a 0.5 McFarland standard. An inoculum of 2–8 × 10^5 CFU/mL was incubated with the compounds for 24 h at 37 °C. Gentamicin (data not shown) was incubated in the same manner as the test compounds and served as a positive control. The effect of the compounds on bacterial growth was calculated by quantifying the optical density at 600 nm on a microplate reader (Tecan, Infinite M1000, Salzburg, Austria). Dilutions of the inoculum were cultivated on agar to verify the validity of the inoculum seeding density and absence of contamination. All tests were executed in triplicate during two separate experiments.

[2] = system: S. aureus Newman; assay: as above; assay type: cell-based, Staphylococcus aureus
Experimental: as §1

[3] = system: S. aureus ATCC 33591 (MRSA); assay: as above; assay type: cell-based, Staphylococcus aureus; details: 24 h
Experimental: as §1

[4] = system: A549 cells; assay: Mammalian cell cytotoxicity assay (PrestoBlue); assay type: cell-based, human; details: Homo sapiens, A549, 72 h, read-out: Mammalian cell lines IC50
Experimental: (§2) A549 and HepG2 cells were seeded at 1500 and 2500 cells per well, respectively, in 384-well microplates and incubated at 37 °C in the presence of 5% CO2. The next day, cells were treated with compounds then incubated for an additional 72 h. To assess the cytotoxic effect of the compounds PrestoBlue cell viability reagent (Life Technologies, Carlsbad, CA, USA) was used. After the 72 h incubation with compounds, the 384-well assay plates were incubated with this viability indicator dye for 2 h (A549) and 4 h (HepG2) before fluorescence reading at Ex/Em = 560 nm/590 nm on the Tecan Infinite M1000 Pro reader. Puromycin (data not shown) was used as the positive control against both cell lines. All tests were executed in triplicate on two separate experiments.

[5] = system: HepG2 cells; assay: Mammalian cell cytotoxicity assay (PrestoBlue); assay type: cell-based, human; details: Homo sapiens, HepG2, 72 h, read-out: Mammalian cell lines IC50
Experimental: as §2

[6] = system: S. aureus Newman biofilm formation; assay: Biofilm inhibitory assay (crystal violet), biofilm formation; assay type: cell-based, Staphylococcus aureus; details: CV assay; for IC50: biofilm formation, read-out: Biofilm Inhibition IC50
Experimental: (§3) The effectiveness of SrtA inhibitors in reducing biofilm formation and growth was assessed using the crystal violet (CV) biofilm assay with the following modifications. TSB with 2% glucose (TSB without glucose for E. coli) was inoculated with 10^5 CFU/mL of S. aureus and E. coli overnight cultures. A total of 90µl of this cell suspension was then dispensed into 96-well microtiter plates containing 10 µL of different concentrations of the SrtA inhibitors. After 24 h growth at 37 °C the plates were washed with PBS to remove unbound cells and heat fixed at 60 °C for 30 min. Next, the wells were stained with 0.1% crystal violet solution for 15 min at room temperature. At the completion of the incubation plates were washed 3 times with PBS and dried. Then the crystal violet dye from the biofilm was solubilized with 200 µL of DMSO. A total of 100 µL of this solution was then moved to a new microtiter plate for absorbance measurement at 595 nm. For pre-formed biofilm assay, the plates were prepared and incubated as mentioned earlier, without SrtA inhibitors. After 24 h incubation, the culture supernatant was removed gently and biofilm carefully washed with sterile PBS. Next, 10 µL of different concentrations of SrtA inhibitors with 90 µL of TSB with 2% glucose were added carefully into the wells and incubated at 37 °C for 24 h. The amount of crystal violet staining of biofilm was measured as described above. The results were reported as percent inhibition normalized to the wild type control. Two independent experiments were performed in triplicate to ensure reproducibility.

[7] = system: S. aureus ATCC 33591 (MRSA) biofilm formation; assay: as above; assay type: cell-based, Staphylococcus aureus; details: S. aureus ATCC 33591 (MRSA), biofilm formation, read-out: Biofilm Inhibition IC50
Experimental: as §3

[8] = system: adherence of S. aureus Newman to fibrinogen; assay: Fibrinogen binding assay; assay type: cell-based, Staphylococcus aureus; details: for IC50: read-out: Fibrinogen adherence Inhibition IC50; for concentration giving ≥90% prevention of S. aureus Newman adherence to fibrinogen: compared to untreated wildtype strain
Experimental: Fibrinogen binding assay was completed as described but with slight revision. A flat-bottom 96-well plate was covered with fibrinogen protein by adding 50 µL of 20 µg/mL of fibrinogen protein from bovine plasma diluted in saline and incubated at 4 °C for 24 h. The coated plates were gently rinsed twice with PBS and blocked for 60 min with 4% bovine serum albumin (BSA). The plates were then washed 3 times with PBS. For this assay, S. aureus Newman strain was cultivated in TSB at 37 °C to exponential phase (OD600 = 0.5) and then the bacterial culture was incubated with various concentrations of test compound or control for 2.5 h. Then the cells were pelleted by centrifugation at 10,000× g for 10 min, the supernatants were removed and the cell pellets stored at −20 °C. The following day, cell pellets were suspended in PBS and dispersed in 100 μL aliquots to distinct wells of fibrinogen-coated 96-well plates. After 2 h of growth at 37 °C, the bacterial supernatant was discarded and the wells were rinsed gently with 150 µl PBS. Then the bacterial cells were fixed with 2% (v/v) glutaraldehyde and incubated for 30 min at 25 °C. After a wash with PBS, bound cells were stained with 0.1% crystal violet dye for 15 min. Plates were rinsed twice again with PBS, enclosed with aluminum foil, then stored at room temperature to dry overnight. On the next day absorbance was measured at 570 nm. The results were described as the percent of adhesion inhibition normalized to the wild type control. Two independent experiments were performed in triplicate to ensure reproducibility.

[9] = molecular target: T1, S. aureus sortase A (Staphylococcus aureus, UniProt Q2FV99); assay: SrtA enzyme inhibition FRET assay, 5-FAM/QXL 520 substrate; assay type: biochemical
T1 construct: purchased AnaSpec AS-72229
Experimental: (§4) The enzymatic reactions were carried out in black, low-binding polystyrene 384 well plates (Greiner Bio-One). […] SrtA was pre-incubated in the reaction buffer with compounds for 1 h at room temperature prior to the addition of the FRET substrate. Assays were performed in 50 µL reactions with 50 ng of S. aureus sortase A and 25 µM of DABCYL-LPETG-EDANS substrate or 1 µM of 5-FAM/QXL^TM 520 substrate. The inhibitory activity of the compounds was determined by monitoring the rise in fluorescence intensity over 24 h at Ex/Em = 336 nm/490 nm for the DABCYL/EDANS substrate and Ex/Em = 490 nm/520 nm for the 5-FAM/QXL 520 substrate on a Tecan Infinite M1000 Pro reader.
(§5) Raw fluorescence data were corrected for autofluorescence before computing percentage inhibition values. These percentage inhibition values were plotted against compound concentration using GraphPad Prism version 8.0 by nonlinear regression analysis using least squares fit method for IC50 determination. Testing was performed twice to ensure reproducibility of results.

[10] = molecular target: T1, S. aureus sortase A; assay: SrtA enzyme inhibition FRET assay, DABCYL-LPETG-EDANS substrate; assay type: biochemical
Experimental: as §4, §5

[11] = system: S. aureus Newman pre-formed biofilms; assay: Biofilm inhibitory assay (crystal violet), pre-formed biofilms; assay type: cell-based, Staphylococcus aureus; details: pre-formed biofilms, CV assay, read-out: Biofilm Inhibition IC50
Experimental: as §3

T1 sequence (Q2FV99 whole entry): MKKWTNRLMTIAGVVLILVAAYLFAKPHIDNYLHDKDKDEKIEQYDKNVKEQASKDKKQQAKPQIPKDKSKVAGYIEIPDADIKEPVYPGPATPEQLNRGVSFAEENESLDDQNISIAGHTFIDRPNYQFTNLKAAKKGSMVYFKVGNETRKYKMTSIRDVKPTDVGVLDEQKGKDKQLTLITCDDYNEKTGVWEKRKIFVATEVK

COc1cc(/C=C/C(=O)CC(=O)/C=C/c2ccc(O)c(OC)c2)ccc1O [Curcumin, reference compound]
MIC [1]: > 200 µM | MIC ([2]; Staphylococcus aureus, NEWMAN, 24 h): > 200 µM | growth inhibition of S. aureus ([2]; at 200 µM, strain not given): did not inhibit the growth | MIC ([3]; Staphylococcus aureus): > 200 µM | IC50 [4]: 48.2 ± 12.7 µM | IC50 [5]: 39.6 ± 5.3 µM | concentration giving >90% inhibition of biofilm formation [6]: 174 µM | IC50 ([6]; Staphylococcus aureus, NEWMAN): 51.2 ± 4.4 µM | IC50 [6]: 51 µM | IC50 ([7]; Staphylococcus aureus): > 150 µM | IC50 ([8]; Staphylococcus aureus, NEWMAN): 46.5 ± 6.2 µM | concentration giving ≥90% prevention of S. aureus Newman adherence to fibrinogen [8]: > 170 µM

COc1c(C)c2c(c(O)c1C/C=C(\C)CCC(=O)OC1c3cc(O)cc(O)c3C(=O)OC1(C)O)C(=O)OC2 (centres unmarked) [Compound N1871, Antibiotic F 13459]
IC50 [9]: > 200 µM | IC50 [10]: > 200 µM

CC(C)=CCc1c2c(c(O)c3c(=O)c(-c4ccc(O)c(O)c4)coc13)C=CC(C)(C)O2 [Compound N1048, Auriculasin]
IC50 [9]: > 200 µM | IC50 [10]: > 200 µM

COc1ccc(C[C@H](N)C(=O)N[C@H]2[C@@H](O)[C@H](n3cnc4c(N(C)C)ncnc43)O[C@@H]2CO)cc1 [Compound N51, Puromycin hydrochloride]
IC50 [9]: > 200 µM | IC50 [10]: > 200 µM

O=C(O)c1cc[c]([Hg][OH])cc1 [p-HMB, p-hydroxymercuribenzoic acid, reference compound]
S. aureus MIC [3]: 6.7 ± 1.5 µM | IC50 ([9]; 5-FAM/QXL substrate, 10 min, read-out: Sortase A IC50): 0.18 ± 0.08 µM | IC50 ([10]; DABCYL-LPETG-EDANS substrate, 4 h, read-out: Sortase A IC50): 0.2 ± 0.07 µM | concentration giving >90% inhibition of biofilm formation [6]: 22 µM | IC50 [6]: 11.9 µM and 12 µM | IC50 [7]: > 150 µM | IC50 ([8]; S. aureus Newman): 37.4 ± 5.3 µM | concentration giving ≥90% prevention of S. aureus Newman adherence to fibrinogen [8]: > 170 µM | IC50 [11]: 43 ± 3.6 µM

CC(C)=CCc1c(O)c(CC=C(C)C)c2occ(-c3ccc(O)cc3)c(=O)c2c1O [Compound N942, 6,8-diprenylgenistein]
IC50 [9]: > 200 µM | IC50 [10]: > 200 µM
